Test results taken from BigSolDB 2.1.

Cc1cc(C)c(C(=O)P(=O)(C(=O)c2c(C)cc(C)cc2C)c2ccccc2)c(C)c1
solubility (mole fraction) (in acetonitrile, 295.4 K): 0.00463 | solubility (mole fraction) (in acetonitrile, 303.2 K): 0.00793 | solubility (mole fraction) (in acetonitrile, 308 K): 0.0108 | solubility (mole fraction) (in acetonitrile, 313.3 K): 0.0154 | solubility (mole fraction) (in acetonitrile, 318.1 K): 0.0225 | solubility (mole fraction) (in acetonitrile, 323.2 K): 0.03 | solubility (mole fraction) (in acetonitrile, 328.1 K): 0.0421 | solubility (mole fraction) (in acetonitrile, 333.2 K): 0.0611 | solubility (mole fraction) (in acetonitrile, 338.1 K): 0.0863 | solubility (mole fraction) (in cyclohexane, 295.4 K): 0.0016 | solubility (mole fraction) (in cyclohexane, 303.2 K): 0.00239 | solubility (mole fraction) (in cyclohexane, 308.3 K): 0.00323 | solubility (mole fraction) (in cyclohexane, 313.1 K): 0.00414 | solubility (mole fraction) (in cyclohexane, 318.2 K): 0.00542 | solubility (mole fraction) (in cyclohexane, 323.4 K): 0.00732 | solubility (mole fraction) (in cyclohexane, 328.1 K): 0.00966 | solubility (mole fraction) (in cyclohexane, 333.2 K): 0.0123 | solubility (mole fraction) (in cyclohexane, 338.1 K): 0.017 | solubility (mole fraction) (in cyclohexane, 343.3 K): 0.0217 | solubility (mole fraction) (in ethanol, 295.4 K): 0.00372 | solubility (mole fraction) (in ethanol, 303.2 K): 0.00627 | solubility (mole fraction) (in ethanol, 307.2 K): 0.00827 | solubility (mole fraction) (in ethanol, 313.1 K): 0.0119 | solubility (mole fraction) (in ethanol, 318 K): 0.0161 | solubility (mole fraction) (in ethanol, 324.1 K): 0.0239 | solubility (mole fraction) (in ethanol, 328.3 K): 0.0326 | solubility (mole fraction) (in ethanol, 333.2 K): 0.0471 | solubility (mole fraction) (in ethyl acetate, 295.4 K): 0.0178 | solubility (mole fraction) (in ethyl acetate, 303.2 K): 0.0259 | solubility (mole fraction) (in ethyl acetate, 307.9 K): 0.0326 | solubility (mole fraction) (in ethyl acetate, 313.2 K): 0.0406 | solubility (mole fraction) (in ethyl acetate, 318.2 K): 0.0508 | solubility (mole fraction) (in ethyl acetate, 323.3 K): 0.064 | solubility (mole fraction) (in ethyl acetate, 328.2 K): 0.0842 | solubility (mole fraction) (in ethyl acetate, 333 K): 0.103 | solubility (mole fraction) (in ethyl acetate, 338.1 K): 0.127 | solubility (mole fraction) (in ethyl acetate, 343.2 K): 0.16 | solubility (mole fraction) (in isopropanol, 295.4 K): 0.00278 | solubility (mole fraction) (in isopropanol, 305.2 K): 0.0055 | solubility (mole fraction) (in isopropanol, 308.2 K): 0.0068 | solubility (mole fraction) (in isopropanol, 313.3 K): 0.0098 | solubility (mole fraction) (in isopropanol, 318 K): 0.0137 | solubility (mole fraction) (in isopropanol, 324.1 K): 0.0205 | solubility (mole fraction) (in isopropanol, 328.1 K): 0.0281 | solubility (mole fraction) (in isopropanol, 333.2 K): 0.04 | solubility (mole fraction) (in isopropanol, 338.3 K): 0.0556 | solubility (mole fraction) (in isopropanol, 343.2 K): 0.0793 | solubility (mole fraction) (in methanol, 295.4 K): 0.00235 | solubility (mole fraction) (in methanol, 303.2 K): 0.00434 | solubility (mole fraction) (in methanol, 308.3 K): 0.00629 | solubility (mole fraction) (in methanol, 313.1 K): 0.00909 | solubility (mole fraction) (in methanol, 318.2 K): 0.0134 | solubility (mole fraction) (in methanol, 323.4 K): 0.0195 | solubility (mole fraction) (in methanol, 328 K): 0.0283 | solubility (mole fraction) (in methanol, 333.2 K): 0.0427 | solubility (mole fraction) (in n-hexane, 295.4 K): 0.00151 | solubility (mole fraction) (in n-hexane, 303.2 K): 0.00218 | solubility (mole fraction) (in n-hexane, 308.1 K): 0.00277 | solubility (mole fraction) (in n-hexane, 313.2 K): 0.00323 | solubility (mole fraction) (in n-hexane, 318.1 K): 0.00389 | solubility (mole fraction) (in n-hexane, 322.9 K): 0.00442 | solubility (mole fraction) (in n-hexane, 328.1 K): 0.00525 | solubility (mole fraction) (in n-hexane, 333.2 K): 0.00635
